According to US11807634B2, “Cyclopropyl dihydroquinoline sulfonamide compounds” (AMGEN INC., priority 2020, dated 2023):

Tested on: CYP3A4
Experiment: Human CYP 3A4 induction assay (mRNA, cryopreserved human hepatocytes)
Assay type: in vitro ADME
Details: human hepatocytes, 10 uM test compound, 72 hours, mRNA, percent of control (rifampin positive control)
Experimental: Human CYP 3A4 Induction Assay
Cryopreserved human hepatocytes were seeded in 96-well collagen coated plates at 70,000 cells per well in hepatocyte plating media (HPM, final concentrations: 1× Dulbecco's Modified Eagle's Medium, 0.1 μM dexamethasone, 10% fetal bovine serum, 1× ITS, 1×PSG) followed by incubation at 37° C. under 5% CO2 and 90% relative humidity for 2 days to allow hepatocytes to form a confluent layer. On Day 3, hepatocytes were treated with either test compound or rifampin (20 μM, positive control for CYP3A induction) prepared in hepatocyte incubation media ((HIM, final concentrations: 1× William's Medium E, 0.1 μM dexamethasone, 1×ITS, 1×PSG). Treatment was performed for 72 hours with either 2 concentrations (2 μM or 10 μM) or a range of concentrations (0.001 μM to 100 μM) of the test compound to obtain full dose-response curve. Fresh media containing the relevant concentrations of the test compound was replaced every day until the samples were processed. After 72 hours of incubation, samples were processed for mRNA analysis using bDNA technology using manufacturer's instructions (Affymetrix, Fremont, Calif.). Cell viability was tested at the end of the experiment using MTT assay kit (Roche Diagnostics, Basel, Switzerland). Data was analyzed and presented as percent of control (POC) and Emax and EC50 obtained when appropriate according to guidance from Center for Drug Evaluation and Research (CDER), 2006, Guidance for Industry, Drug Interaction Studies—Study Design, Data Analysis, and Implications for Dosing and Labeling.
Cryopreserved human hepatocytes were seeded in 96-well collagen coated plates at 70,000 cells per well in hepatocyte plating media (HPM, final concentrations: 1× Dulbecco's Modified Eagle's Medium, 0.1 μM dexamethasone, 10% fetal bovine serum, 1×ITS, 1×PSG) followed by incubation at 37° C. under 5% CO2 and 90% relative humidity for 2 days to allow hepatocytes to form a confluent layer. On Day 3, hepatocytes were treated with either test compound or rifampin (20 μM, positive control for CYP3A induction) prepared in hepatocyte incubation media ((HIM, final concentrations: 1× William's Medium E, 0.1 μM dexamethasone, 1×ITS, 1×PSG). Treatment was performed for 72 hours with either 2 concentrations (2 μM or 10 μM) or a range of concentrations (0.001 μM to 100 μM) of the test compound to obtain full dose-response curve. Fresh media containing the relevant concentrations of the test compound was replaced every day until the samples were processed. After 72 hours of incubation, samples were processed for mRNA analysis using bDNA technology using manufacturer's instructions (Affymetrix, Fremont, Calif.). Cell viability was tested at the end of the experiment using MTT assay kit (Roche Diagnostics, Basel, Switzerland). Data was analyzed and presented as percent of control (POC) and Emax and EC50 obtained when appropriate, as described in Halladay, J. et al, 2012, An “all-inclusive” 96-well cytochrome P450 induction method: Measuring enzyme activity, mRNA levels, protein levels, and cytotoxicity from one well using cryopreserved human hepatocytes, Pharmacological and Toxicological Methods, 66:270-275.
The cytochrome P450 (CYP) is a well-known superfamily of enzymes that are responsible for the oxidative and reductive metabolic transformation of medications used in clinical practice. In addition, the CYP enzymes are commonly associated with causing many clinically relevant drug-drug interactions. Of the CYP enzymes, CYP3A4 is not only the most prevalent CYP enzyme in the liver and intestine, but is responsible for metabolism and elimination of approximately 50% of marketed drugs. In addition, CYP3A4 activity can be induced (or increased) or inhibited (decreased) in response to administration of certain drugs, thereby affecting concentrations of their own or certain concomitant drugs present in the body. […]

Row | CYP3A4 mRNA Induct Hu 10 uM POC [%] | Structure (SMILES)
1 | 15.9 | COc1cc([C@H]2C[C@@H]2C(F)(F)F)c(F)cc1-n1c(=O)ccc2cc(S(=O)(=O)Nc3ccon3)ccc21 (atropisomer, axis not shown; (P)) [Example 4, (P)-1-(5-fluoro-2-methoxy-4-((1S,2S)-2-(trifluoromethyl)cyclopropyl)phenyl)-N-(isoxazol-3-yl)-2-oxo-1,2-dihydroquinoline-6-sulfonamide]
2 | 41.96 | COc1cc([C@@H]2C[C@H]2C(F)(F)F)c(F)cc1-n1c(=O)ccc2cc(S(=O)(=O)Nc3ccon3)ccc21 (atropisomer, axis not shown; (P)) [Example 5, (P)-1-(5-fluoro-2-methoxy-4-((1R,2R)-2-(trifluoromethyl)cyclopropyl)phenyl)-N-(isoxazol-3-yl)-2-oxo-1,2-dihydroquinoline-6-sulfonamide]
3 | 25.49 | COc1cc([C@@H]2C[C@H]2C)c(F)cc1-n1c(=O)ccc2cc(S(=O)(=O)Nc3ccon3)ccc21 (atropisomer, axis not shown; (P)) [Example 6, (P)-1-(5-fluoro-2-methoxy-4-((1R,2R)-2-methylcyclopropyl)phenyl)-N-(isoxazol-3-yl)-2-oxo-1,2-dihydroquinoline-6-sulfonamide]
4 | 41.2 | COc1cc([C@H]2C[C@@H]2C)c(F)cc1-n1c(=O)ccc2cc(S(=O)(=O)Nc3ccon3)ccc21 (atropisomer, axis not shown; (P)) [Example 7, (P)-1-(5-fluoro-2-methoxy-4-((1S,2S)-2-methylcyclopropyl)phenyl)-N-(isoxazol-3-yl)-2-oxo-1,2-dihydroquinoline-6-sulfonamide]
5 | 27.54 | COc1cc([C@@H]2C[C@H]2c2ccccc2)c(F)cc1-n1c(=O)ccc2cc(S(=O)(=O)Nc3ccon3)ccc21 (atropisomer, axis not shown; (P)) [Example 8, (P)-1-(5-fluoro-2-methoxy-4-((1R,2R)-2-phenylcyclopropyl)phenyl)-N-(isoxazol-3-yl)-2-oxo-1,2-dihydroquinoline-6-sulfonamide]
6 | 37.165 | COc1cc([C@H]2C[C@@H]2c2ccccc2)c(F)cc1-n1c(=O)ccc2cc(S(=O)(=O)Nc3ccon3)ccc21 (atropisomer, axis not shown; (P)) [Example 9, (P)-1-(5-fluoro-2-methoxy-4-((1S,2S)-2-phenylcyclopropyl)phenyl)-N-(isoxazol-3-yl)-2-oxo-1,2-dihydroquinoline-6-sulfonamide]
7 | 29.85 | COc1cc([C@H]2C[C@@H]2C(F)(F)F)c(Cl)cc1-n1c(=O)ccc2cc(S(=O)(=O)Nc3ncccn3)ccc21 (atropisomer, axis not shown; (P)) [Example 12, (P)-1-(5-chloro-2-methoxy-4-((1S,2S)-2-(trifluoromethyl)cyclopropyl)phenyl)-2-oxo-N-(pyrimidin-2-yl)-1,2-dihydroquinoline-6-sulfonamide]
8 | 92.47 | COc1cc([C@@H]2C[C@H]2C(F)(F)F)c(Cl)cc1-n1c(=O)ccc2cc(S(=O)(=O)Nc3ncccn3)ccc21 (atropisomer, axis not shown; (P)) [Example 13, (P)-1-(5-chloro-2-methoxy-4-((1R,2R)-2-(trifluoromethyl)cyclopropyl)phenyl)-2-oxo-N-(pyrimidin-2-yl)-1,2-dihydroquinoline-6-sulfonamide]
9 | 27.11 | COc1cc([C@@H]2C[C@H]2C(F)(F)F)c(F)cc1-n1c(=O)ccc2cc(S(=O)(=O)Nc3cccnn3)ccc21 (atropisomer, axis not shown; (P)) [Example 16, (P)-1-(5-fluoro-2-methoxy-4-((1R,2R)-2-(trifluoromethyl)cyclopropyl)phenyl)-2-oxo-N-(pyridazin-3-yl)-1,2-dihydroquinoline-6-sulfonamide]
10 | 37.04 | COc1cc([C@H]2C[C@@H]2C(F)(F)F)c(F)cc1-n1c(=O)ccc2cc(S(=O)(=O)Nc3cccnn3)ccc21 (atropisomer, axis not shown; (P)) [Example 17, (P)-1-(5-fluoro-2-methoxy-4-((1S,2S)-2-(trifluoromethyl)cyclopropyl)phenyl)-2-oxo-N-(pyridazin-3-yl)-1,2-dihydroquinoline-6-sulfonamide]
11 | 9.92 | COc1cc([C@@H]2C[C@H]2C(F)(F)F)c(Cl)cc1-n1c(=O)ccc2cc(S(=O)(=O)Nc3ccon3)ccc21 (atropisomer, axis not shown; (P)) [Example 18, (P)-1-(5-chloro-2-methoxy-4-((1R,2R)-2-(trifluoromethyl)cyclopropyl)phenyl)-N-(isoxazol-3-yl)-2-oxo-1,2-dihydroquinoline-6-sulfonamide]
12 | 85.5 | COc1cc([C@H]2C[C@@H]2C(F)(F)F)c(Cl)cc1-n1c(=O)ccc2cc(S(=O)(=O)Nc3ccon3)ccc21 (atropisomer, axis not shown; (P)) [Example 19, (P)-1-(5-chloro-2-methoxy-4-((1S,2S)-2-(trifluoromethyl)cyclopropyl)phenyl)-N-(isoxazol-3-yl)-2-oxo-1,2-dihydroquinoline-6-sulfonamide]
13 | 67.47 | COc1cc([C@@H]2C[C@H]2C(F)(F)F)c(F)cc1-n1c(=O)ccc2cc(S(=O)(=O)Nc3ncccn3)ccc21 (atropisomer, axis not shown; (P)) [Example 20, (P)-1-(5-fluoro-2-methoxy-4-((1R,2R)-2-(trifluoromethyl)cyclopropyl)phenyl)-2-oxo-N-(pyrimidin-2-yl)-1,2-dihydroquinoline-6-sulfonamide]
14 | 34.81 | COc1cc([C@H]2C[C@@H]2C(F)(F)F)c(F)cc1-n1c(=O)ccc2cc(S(=O)(=O)Nc3ncccn3)ccc21 (atropisomer, axis not shown; (P)) [Example 21, (P)-1-(5-fluoro-2-methoxy-4-((1S,2S)-2-(trifluoromethyl)cyclopropyl)phenyl)-2-oxo-N-(pyrimidin-2-yl)-1,2-dihydroquinoline-6-sulfonamide]
15 | 85.95 | COc1cc(C2(C(F)(F)F)CC2)c(F)cc1-n1c(=O)ccc2cc(S(=O)(=O)Nc3ncccn3)ccc21 (atropisomer, axis not shown; (P)) [Example 23, (P)-1-(5-fluoro-2-methoxy-4-(1-(trifluoromethyl)cyclopropyl)phenyl)-2-oxo-N-(pyrimidin-2-yl)-1,2-dihydroquinoline-6-sulfonamide]
16 | 100.7 | COc1cc(C2(C(F)(F)F)CC2)c(Cl)cc1-n1c(=O)ccc2cc(S(=O)(=O)Nc3ccon3)ccc21 (atropisomer, axis not shown; (P)) [Example 24, (P)-1-(5-chloro-2-methoxy-4-(1-(trifluoromethyl)cyclopropyl)phenyl)-N-(isoxazol-3-yl)-2-oxo-1,2-dihydroquinoline-6-sulfonamide]
17 | 88.68 | COc1cc(C2(C(F)(F)F)CC2)c(Cl)cc1-n1c(=O)ccc2cc(S(=O)(=O)Nc3ncccn3)ccc21 (atropisomer, axis not shown; (P)) [Example 25, (P)-1-(5-chloro-2-methoxy-4-(1-(trifluoromethyl)cyclopropyl)phenyl)-2-oxo-N-(pyrimidin-2-yl)-1,2-dihydroquinoline-6-sulfonamide]
